Some test systems named below: OVCAR-3 ovarian; SR leukemia; SF-295 CNS; LOX IMVI melanoma; MDA-MB-231 breast; SNB-19 CNS; COLO 205 colon; SK-MEL-28 melanoma; SNB-75 CNS; SN12C renal; EKVX NSCLC; MALME-3M melanoma; HL-60(TB) leukemia; SF-539 CNS; DU-145 prostate; OVCAR-5 ovarian; HOP-62 NSCLC; PC-3 prostate; SW-620 colon; SK-OV-3 ovarian.
Test in all cases: inhibition of tumour cell growth, NCI panel, 48 h

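Protocol summary: plate cells (96-well), add compound at 5 concentrations, incubate 48 h, interpolate endpoints linearly. The concentration for full growth arrest is given as TGI.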

Take `COc1cc(OCc2ccc3nc(-c4ccccc4)c(Cl)nc3c2)cc(OC)c1OC`: the TGI in the assay with OVCAR-3 ovarian, in the assay with SR leukemia, in the assay with SF-295 CNS, in the assay with LOX IMVI melanoma, in the assay on MDA-MB-231 breast and in the assay on SNB-19 CNS was > 100 µM in each case. Further, the TGI with COLO 205 colon is > 100 µM; with SK-MEL-28 melanoma, > 100 µM; in the assay with SNB-75 CNS it was > 100 µM; with SN12C renal, > 100 µM; in the assay on EKVX NSCLC, > 100 µM; in the assay on MALME-3M melanoma, 96.1 µM. The TGI in the assay on HL-60(TB) leukemia, in the assay on SF-539 CNS, in the assay on DU-145 prostate, with OVCAR-5 ovarian, in the assay on HOP-62 NSCLC and in the assay on PC-3 prostate was > 100 µM throughout. In addition, in the assay on SW-620 colon, the TGI is > 100 µM.
Take `COc1cc(S(=O)(=O)Nc2nc(-c3ccc(N4C(=O)CSC4c4cccs4)cc3)cs2)ccc1Cl` (stereo not given): the TGI in the assay on OVCAR-3 ovarian is > 100 µM; in the assay on SR leukemia, 96.8 µM; in the assay with SK-OV-3 ovarian, > 100 µM; in the assay with SF-295 CNS, > 100 µM; in the assay with LOX IMVI melanoma, 48.2 µM; in the assay with MDA-MB-231 breast it was > 100 µM. In addition, the TGI in the assay with SNB-19 CNS is > 100 µM; in the assay with COLO 205 colon, > 100 µM; in the assay on SK-MEL-28 melanoma, > 100 µM; in the assay with SNB-75 CNS, > 100 µM; in the assay with SN12C renal it was 77.8 µM; with MALME-3M melanoma, > 100 µM. Further, the TGI in the assay on HL-60(TB) leukemia, in the assay on SF-539 CNS, with DU-145 prostate, in the assay on OVCAR-5 ovarian, in the assay with HOP-62 NSCLC and in the assay on PC-3 prostate was > 100 µM throughout. Also, the TGI in the assay with SW-620 colon is > 100 µM.
As for `N=c1oc2ccc([N+](=O)[O-])cc2cc1C(=O)NCc1ccccc1`, the TGI in the assay on SR leukemia is > 100 µM; in the assay with SK-OV-3 ovarian it was > 100 µM; in the assay with SF-295 CNS it was > 100 µM; in the assay on LOX IMVI melanoma it was 32.2 µM; with MDA-MB-231 breast it was 60.9 µM; in the assay on SNB-19 CNS it was > 100 µM. Moreover, the TGI in the assay on COLO 205 colon was 40.5 µM; in the assay on SK-MEL-28 melanoma, 35.8 µM; with SNB-75 CNS, 29.5 µM; in the assay with SN12C renal, 36.9 µM; in the assay with EKVX NSCLC, > 100 µM; with MALME-3M melanoma, 26.7 µM. The TGI in the assay on HL-60(TB) leukemia was > 100 µM; in the assay with SF-539 CNS it was 33.3 µM; with DU-145 prostate, > 100 µM; in the assay with OVCAR-5 ovarian, 96 µM; in the assay on HOP-62 NSCLC it was > 100 µM; in the assay on PC-3 prostate it was 40.3 µM. For the same molecule, the TGI in the assay on SW-620 colon was 39.5 µM.
Turning to `c1ccc2c(C3CCN(CCN4CCOCC4)C3)c[nH]c2c1` (stereo not given), the TGI with OVCAR-3 ovarian, in the assay on SR leukemia, in the assay on SK-OV-3 ovarian, in the assay with SF-295 CNS, in the assay with LOX IMVI melanoma and in the assay with MDA-MB-231 breast was > 100 µM throughout. In addition, the TGI with SNB-19 CNS, with SK-MEL-28 melanoma, in the assay on SNB-75 CNS, in the assay on SN12C renal, in the assay on EKVX NSCLC and in the assay with MALME-3M melanoma was > 100 µM each time. Also, the TGI in the assay on HL-60(TB) leukemia, in the assay on DU-145 prostate, with OVCAR-5 ovarian, in the assay with HOP-62 NSCLC, in the assay with PC-3 prostate and in the assay on SW-620 colon was > 100 µM in each case.
For `COc1ccc2c(c1)/C(=C\c1c(C)nc3n1CCS3)C(=O)N2`, the TGI with OVCAR-3 ovarian is 76 µM; in the assay with SR leukemia it was > 100 µM; in the assay on SK-OV-3 ovarian, 63.3 µM; in the assay on SF-295 CNS, 98.9 µM; in the assay with LOX IMVI melanoma it was > 100 µM; in the assay with MDA-MB-231 breast, > 100 µM. Besides, the TGI in the assay with SNB-19 CNS was > 100 µM; in the assay on COLO 205 colon it was 41.9 µM; in the assay with SK-MEL-28 melanoma, > 100 µM; in the assay on SNB-75 CNS, > 100 µM; in the assay with SN12C renal it was 73.8 µM; in the assay on EKVX NSCLC, > 100 µM. In addition, the TGI in the assay with HL-60(TB) leukemia was 66.8 µM; in the assay with SF-539 CNS, 54.7 µM; in the assay with DU-145 prostate, > 100 µM; in the assay with OVCAR-5 ovarian, > 100 µM; in the assay on HOP-62 NSCLC it was > 100 µM; with PC-3 prostate, 55.2 µM. In the assay with SW-620 colon, the TGI was > 100 µM.
In the case of `Nc1nc(N)c2cc(Sc3ccc4nc(N)nc(N)c4c3)ccc2n1`, the TGI with OVCAR-3 ovarian was > 31.6 µM; with SR leukemia it was > 100 µM; in the assay with SK-OV-3 ovarian, > 100 µM; in the assay with LOX IMVI melanoma, > 100 µM; with MDA-MB-231 breast it was > 100 µM; in the assay with SNB-19 CNS, > 100 µM. For the same molecule, the TGI in the assay on COLO 205 colon, with SK-MEL-28 melanoma, in the assay with SNB-75 CNS, in the assay with SN12C renal, in the assay with EKVX NSCLC and in the assay with MALME-3M melanoma was > 100 µM each time. Further, the TGI with HL-60(TB) leukemia, in the assay on SF-539 CNS, with DU-145 prostate, in the assay on OVCAR-5 ovarian, in the assay with HOP-62 NSCLC and with PC-3 prostate was > 100 µM each time. For the same molecule, the TGI in the assay with SW-620 colon is > 100 µM.
For `COc1cc(C2SCC(=O)N2c2ccccc2Cl)cc(OC)c1OC` (stereo not given), the TGI with OVCAR-3 ovarian, with SR leukemia, in the assay with SK-OV-3 ovarian, in the assay with SF-295 CNS, in the assay on LOX IMVI melanoma and in the assay on MDA-MB-231 breast was > 100 µM in each case. In addition, the TGI in the assay with SNB-19 CNS, in the assay with COLO 205 colon, with SK-MEL-28 melanoma, in the assay with SN12C renal, in the assay on EKVX NSCLC and in the assay on HL-60(TB) leukemia was > 100 µM throughout. In addition, the TGI in the assay on SF-539 CNS, with DU-145 prostate, in the assay on OVCAR-5 ovarian, with PC-3 prostate and in the assay on SW-620 colon was > 100 µM each time.
